Read-outs that look alike come from different tables or passages of the source. Blank lines part the entries; values can stand above or below the compound they belong to.
Key:
GST-Bcl-B [1] = target: T1, GST-Bcl-B (Homo sapiens, UniProt Q9HD36); assay: biochemical
T1 sequence (Q9HD36 1-182 limits assumed): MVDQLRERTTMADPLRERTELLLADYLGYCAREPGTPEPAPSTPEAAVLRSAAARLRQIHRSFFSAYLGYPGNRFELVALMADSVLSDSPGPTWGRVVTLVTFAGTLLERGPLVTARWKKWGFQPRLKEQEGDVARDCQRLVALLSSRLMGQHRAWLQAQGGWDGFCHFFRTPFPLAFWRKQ

GST-Bcl-B [2] = target: T1, GST-Bcl-B; assay: Bcl-B/FITC-TR3-r8 fluorescence polarization competition (displacement) assay, HTS and dose-response; conditions: for Bcl-B H Coefficient: Hill coefficient of Bcl-B dose-response curve
[3] = Table 8, NCI Structural library, Binding Assay, FP, Concentration 0.02 uM
[4] = read-out: Result Value (Result Type % Inhibition), BCL-b/TR3
[5] = Table 7, NCI Mechanistic library, Binding Assay, FP, Concentration 0.02 uM
[6] = read-out: Result Value (Result Type % Inhibition), BCL-b/TR3, Table 7, NCI Mechanistic library, Binding Assay, FP, Concentration 0.02 uM
[7] = LOPAC1280 library primary screen
[8] = LOPAC1280 library, fluorescence intensity normalized to plate negative controls
[9] = read-out: Result Value (% Inhibition)
[10] = read-out: Result Value (Result Type % Inhibition), BCL-b/TR3, Table 8, NCI Structural library, Binding Assay, FP, Concentration 0.02 uM

SMILES: O=C1C(=Cc2cn(Cc3ccc(Cl)cc3)c3ccccc23)C(=O)c2ccccc21 [Compound 5603089]
IC50 (GST-Bcl-B [1]): 14.4 µM
Bcl-B H Coefficient (GST-Bcl-B [2]): 1.917

SMILES: CC(=O)c1cc(C#N)c(SCC(=O)c2ccc(O)c(O)c2)nc1C [Compound 6033363]
IC50 (GST-Bcl-B [1]): 11 µM
Bcl-B H Coefficient (GST-Bcl-B [2]): 2.08

SMILES: Cc1ccc(-c2cc(C(=O)O)c3cc(Br)ccc3n2)o1 [Compound 6131498]
IC50 (GST-Bcl-B [1]): 16.5 µM
Bcl-B H Coefficient (GST-Bcl-B [2]): 1.896

SMILES: CC1C2C=CC1C(c1c3ccc(=O)c(O)c-3oc3c(O)c(O)ccc13)C2C(=O)O (centres unmarked) [Compound 119913]
F Ratio (GST-Bcl-B [2]; [3]): 0.0972
Is Hit (GST-Bcl-B [2]; [3]): Yes
inhibition at 0.02 µM (GST-Bcl-B [2]; [4]): 131%

SMILES: Cc1cc2c(c3oc(C4OC4C4OC4C)cc(=O)c13)C(=O)c1c(O)c(C3CC(C)(N(C)C)C(O)C(C)O3)cc(C3CC(N(C)C)C(O)C(C)O3)c1C2=O (centres unmarked) [Compound 70929]
F Ratio (GST-Bcl-B [2]; [5]): 0.1099
Is Hit (GST-Bcl-B [2]; [5]): Yes
inhibition at 0.02 µM (GST-Bcl-B [2]; [6]): 105%

SMILES: O=c1c(O)c(-c2cc(O)c(O)c(O)c2)oc2cc(O)cc(O)c12 [M 6750]
Is Hit (GST-Bcl-B [2]; [7]): Yes
F Ratio (GST-Bcl-B [2]; [8]): 0.1247
inhibition at 0.02 µM (GST-Bcl-B [2]; [9]): 61%

SMILES: C[C@]12CC[C@H]3[C@@H](CCC4=CC(=O)CC[C@@]43C)[C@@H]1CC[C@@H]2C(=O)COS(=O)(=O)c1ccc(Br)cc1 [Compound 88915]
F Ratio (GST-Bcl-B [2]; [3]): 0.2647
Is Hit (GST-Bcl-B [2]; [3]): Yes
inhibition at 0.02 µM (GST-Bcl-B [2]; [4]): 61.4%

SMILES: CN1CCN(c2ccc3nc(-c4ccc5[nH]c(-c6ccc(O)cc6)nc5c4)[nH]c3c2)CC1 [Compound 322921]
inhibition at 0.02 µM (GST-Bcl-B [2]; [10]): 71.6%

SMILES: O=C1c2ccccc2C(=O)c2c(O)c(O)cc(O)c21 [Compound 10447]
F Ratio (GST-Bcl-B [2]; [5]): 0.5532
Is Hit (GST-Bcl-B [2]; [5]): Yes
inhibition at 0.02 µM (GST-Bcl-B [2]; [4]): 146%

SMILES: c1ccc2c(NCCCCCCCCNc3c4ccccc4nc4ccccc34)c3ccccc3nc2c1 [Compound 219734]
F Ratio (GST-Bcl-B [2]; [5]): 0.2008
Is Hit (GST-Bcl-B [2]; [5]): Yes
Result Value (Result Type % Inhibition), BCL-b/TR3 (GST-Bcl-B [2]; [5]): 53.437%

SMILES: COc1ccc2c(c1)-c1nn(CCCN(C)C)c3ccc([N+](=O)[O-])c(c13)N2 [Compound 627168]
F Ratio (GST-Bcl-B [2]; [5]): 0.1807
Is Hit (GST-Bcl-B [2]; [5]): Yes
inhibition at 0.02 µM (GST-Bcl-B [2]; [6]): 64.4%

SMILES: Cc1ccc(/N=N/c2c(O)c(S(=O)(=O)O)cc3cc(S(=O)(=O)O)ccc23)c(C)c1 [Compound 10455]
F Ratio (GST-Bcl-B [2]): 0.4406
Is Hit (GST-Bcl-B [2]): Yes
inhibition at 0.02 µM (GST-Bcl-B [2]; [4]): 50.7%

SMILES: N=C1C(O)C2(I)c3ccccc3N3C(=N)C(O)C4c5ccccc5N1C4C32 (centres unmarked) [Compound 118176]
F Ratio (GST-Bcl-B [2]; [3]): 0.5128
Is Hit (GST-Bcl-B [2]; [3]): Yes
inhibition at 0.02 µM (GST-Bcl-B [2]; [4]): 62.3%

SMILES: Cc1nn(-c2ccc(S(=O)(=O)O)cc2)c(O)c1/N=N/c1ccc(-c2ccc(/N=N/c3ccc4c(S(=O)(=O)O)cc(S(=O)(=O)O)c(N)c4c3O)c(O)c2)cc1O [Compound 306711]
F Ratio (GST-Bcl-B [2]; [3]): 0.08966
Is Hit (GST-Bcl-B [2]; [3]): Yes
inhibition at 0.02 µM (GST-Bcl-B [2]; [4]): 154%

SMILES: CN1CC=C(Nc2ccc(C(=O)Nc3ccc(Nc4ccncc4)cc3)c([N+](=O)[O-])c2)c2cc([N+](=O)[O-])ccc21 [Compound 218439]
F Ratio (GST-Bcl-B [2]; [5]): 0.07485
Is Hit (GST-Bcl-B [2]; [5]): Yes
inhibition at 0.02 µM (GST-Bcl-B [2]; [6]): 106%

SMILES: O=S(=O)(O)c1cc(/N=N/c2cccc3ccccc23)c(O)c2ncccc12 [Compound 148354]
F Ratio (GST-Bcl-B [2]; [3]): 0.07045
Is Hit (GST-Bcl-B [2]; [3]): Yes
inhibition at 0.02 µM (GST-Bcl-B [2]; [4]): 102%

SMILES: C[n+]1c(/C=C/c2ccc(O)c3ncccc23)[se]c2ccccc21 [Compound 86374]
F Ratio (GST-Bcl-B [2]; [3]): 0.09444
Is Hit (GST-Bcl-B [2]; [3]): Yes
inhibition at 0.02 µM (GST-Bcl-B [2]; [10]): 61.4%

SMILES: O=C(O)C1=CC(=C(c2ccc(O)c(C(=O)O)c2)c2ccc(O)c(C(=O)O)c2)C=CC1=O [A 1895]
Is Hit (GST-Bcl-B [2]; [7]): Yes
F Ratio (GST-Bcl-B [2]; [8]): 0.07629
inhibition at 0.02 µM (GST-Bcl-B [2]; [9]): 107%

SMILES: Cc1cc(C(=C2C=CC(=N)C=C2)c2ccc(N)cc2)ccc1N [Compound 93739]
inhibition at 0.02 µM (GST-Bcl-B [2]; [4]): 78.6%

SMILES: O=c1c(O)c(-c2ccc(O)c(O)c2)oc2cc(O)cc(O)c12 [Q 0125]
Is Hit (GST-Bcl-B [2]; [7]): Yes
F Ratio (GST-Bcl-B [2]; [8]): 0.1424
inhibition at 0.02 µM (GST-Bcl-B [2]; [9]): 52%

SMILES: O=C1C(Cl)=C(Sc2nnc3c4ccccc4c4ccccc4c3n2)C(=O)c2ccccc21 [Compound 327705]
F Ratio (GST-Bcl-B [2]; [3]): 0.2306
Is Hit (GST-Bcl-B [2]; [3]): Yes
inhibition at 0.02 µM (GST-Bcl-B [2]; [10]): 56.3%

Other lines, results leading:

IC50 (GST-Bcl-B [1]): 8.75 µM
Bcl-B H Coefficient (GST-Bcl-B [2]): 0.6411
SMILES: Cc1ccc(C)n1-c1ccc(OCC(=O)O)cc1 [Compound 5988031]

IC50 (GST-Bcl-B [1]): 32.9 µM
Bcl-B H Coefficient (GST-Bcl-B [2]): 2.719
SMILES: COc1cc(N)ccc1-n1c(C)ccc1C [Compound 5953790]

IC50 (GST-Bcl-B [1]): 3.92 µM
Bcl-B H Coefficient (GST-Bcl-B [2]): 2.481
SMILES: O=C(O)c1ccc([N+](=O)[O-])c2c1NC(c1ccccc1)C1CC=CC21 (centres unmarked) [Compound 5853021]

IC50 (GST-Bcl-B [1]): 1.68 µM
Bcl-B H Coefficient (GST-Bcl-B [2]): 3.03
SMILES: O=C1C=CC2=C3Oc4c(ccc5cc(O)ccc45)C(c4ccccc4C(=O)O)C3C=CC2=C1 (centres unmarked) [Compound 5466725]

IC50 (GST-Bcl-B [1]): 13.1 µM
Bcl-B H Coefficient (GST-Bcl-B [2]): 1.507
SMILES: COc1cc(C2Nc3ccc4ccccc4c3C3=C2C(=O)CC(C)(C)C3)c(Br)cc1O (centres unmarked) [Compound 5660965]

IC50 (GST-Bcl-B [1]): 7.15 µM
Bcl-B H Coefficient (GST-Bcl-B [2]): 3.005
SMILES: O=C(O)C1Nc2ccc3ccccc3c2C2C=CCC12 (centres unmarked) [Compound 5657743]

IC50 (GST-Bcl-B [1]): 7.22 µM
Bcl-B H Coefficient (GST-Bcl-B [2]): 2.718
SMILES: COc1ccc(Nc2ccc(N)cc2)cc1 [Compound 5529774]

F Ratio (GST-Bcl-B [2]; [3]): 0.1219
Is Hit (GST-Bcl-B [2]; [3]): Yes
inhibition at 0.02 µM (GST-Bcl-B [2]; [4]): 66.1%
SMILES: O=S(=O)(O)c1cc(O)c2c(O)c(/N=N/c3cccc4ccccc34)c(S(=O)(=O)O)cc2c1 [Compound 45208]

Is Hit (GST-Bcl-B [2]; [7]): Yes
F Ratio (GST-Bcl-B [2]; [8]): 0.0971
inhibition at 0.02 µM (GST-Bcl-B [2]; [9]): 77%
SMILES: O=c1cc(O)cc(/C=C/c2ccc(O)c(O)c2)o1 [H 5257]

Is Hit (GST-Bcl-B [2]; [7]): Yes
F Ratio (GST-Bcl-B [2]; [8]): 1.0398
inhibition at 0.02 µM (GST-Bcl-B [2]; [9]): 64.7%
SMILES: O=C(Nc1cc(C(=O)Nc2ccc(S(=O)(=O)O)cc2S(=O)(=O)O)cc(C(=O)Nc2ccc(S(=O)(=O)O)cc2S(=O)(=O)O)c1)Nc1cc(C(=O)Nc2ccc(S(=O)(=O)O)cc2S(=O)(=O)O)cc(C(=O)Nc2ccc(S(=O)(=O)O)cc2S(=O)(=O)O)c1 [N 4784]

F Ratio (GST-Bcl-B [2]; [3]): 0.9351
Is Hit (GST-Bcl-B [2]; [3]): Yes
inhibition at 0.02 µM (GST-Bcl-B [2]; [4]): 50.3%
SMILES: CN(C)S(=O)(=O)c1ccc(Nc2ccc(O)c3c2C(=O)c2c([N+](=O)[O-])ccc(O)c2C3=O)cc1 [Compound 117949]

F Ratio (GST-Bcl-B [2]; [5]): 0.06489
Is Hit (GST-Bcl-B [2]; [5]): Yes
inhibition at 0.02 µM (GST-Bcl-B [2]; [4]): 141%
SMILES: O=[N+]([O-])c1cccc2c(/N=N/c3ccc4ccccc4c3O)c(O)cc(S(=O)(=O)O)c12 [Compound 85561]

F Ratio (GST-Bcl-B [2]; [3]): 0.1606
Is Hit (GST-Bcl-B [2]; [3]): Yes
inhibition at 0.02 µM (GST-Bcl-B [2]; [4]): 84.6%
SMILES: Oc1cc(O)c2c(c1)OC(c1ccc(O)c(O)c1)C(O)C2c1c(O)cc(O)c2c1OC(c1ccc(O)c(O)c1)C(O)C2 (centres unmarked) [Compound 143099]

F Ratio (GST-Bcl-B [2]; [3]): 0.1777
Is Hit (GST-Bcl-B [2]; [3]): Yes
inhibition at 0.02 µM (GST-Bcl-B [2]; [4]): 81.8%
SMILES: O=C1C=C(NCCc2cc(Br)c(O)c(Br)c2)C(=O)c2ncccc21 [Compound 668394]

F Ratio (GST-Bcl-B [2]; [3]): 0.4053
Is Hit (GST-Bcl-B [2]; [3]): Yes
inhibition at 0.02 µM (GST-Bcl-B [2]; [4]): 163%
SMILES: Nc1c(S(=O)(=O)O)cc(Nc2cccc(S(N)(=O)=O)c2)c2c1C(=O)c1ccccc1C2=O [Compound 117079]

F Ratio (GST-Bcl-B [2]; [3]): 0.05945
Is Hit (GST-Bcl-B [2]; [3]): Yes
inhibition at 0.02 µM (GST-Bcl-B [2]; [4]): 119%
SMILES: O=S(=O)(O)c1ccc2c(/N=N/c3c(O)ccc4ccccc34)cccc2c1 [Compound 45576]

F Ratio (GST-Bcl-B [2]; [3]): 0.5317
Is Hit (GST-Bcl-B [2]; [3]): Yes
inhibition at 0.02 µM (GST-Bcl-B [2]; [4]): 158%
SMILES: O=C(O)CCc1c2ccc(=O)c(O)c-2oc2c(O)c(O)ccc12 [Compound 119915]

Is Hit (GST-Bcl-B [2]; [5]): Yes
SMILES: O=C1C(Br)=C(N2CCN(CCOCCO)CC2)C(=O)c2c(O)ccc(O)c21 [Compound 659999]

Reference: US20090118135A1, “METHODS AND COMPOUNDS FOR REGULATING APOPTOSIS” (The Burnham Institute, priority 2007, published 2009)
